Laboratory results as given in patent publication US20060058392A1, “Use of a rhein in a therapeutic treatment requiring a rise in the rate of heme oxygenase” (priority 2002, published 2006).

Key:
[1] = system: TO mice implanted with rat tissue; test: Induced granuloma and tissue degradation of rat tissue implanted subcutaneously in mice; type: in vivo, mouse; details: for integrity of the implanted/grafted tissue / tissular reaction (granuloma, inflammatory cells, exudate) caused by the transplant of rat tissue to the mouse: overall statement
Protocol: The effect of diacerein, rhein and their salts or esters on the intensity of the tissular reaction and the destruction and rejection phenomena was assessed following a tissue implantation, using the model of induced granuloma and tissue degradation of rat tissue in mice (Bottomley K M and al., Osteoarthritis and Cartilage (1998) 6: 19-23.).
The method comprises the following steps: • The isolated tissue (Wistar rat, male) are placed in sterile cotton and implanted subcutaneously in TO mice; • the subcutaneous implants are kept for a period of 2 weeks; • daily treatment of the animals with diacerein, rhein, their salts or esters, as well as with the controls and comparatives, at the optimum doses indicated; • collection of the implanted tissue and of the reactive granuloma; • measurement of the degree of tissular inflammatory response (assessment of the dimensions of the granuloma, of the number of inflammatory cells in the exudate and of the volume of the exudate), and of the rejection (assessment of the degradation of the implanted tissue).

human chondrocytes = test: Human chondrocyte culture treated with erythrocyte lysate (cellular viability, apoptosis); type: cell-based; details: lysate of 3×10^6 erythrocytes, 100 μM
Protocol: The whole cellular culture was measured by its cellular viability (live cells compared to the control), the presence of apoptosis (nuclear fragmentation; in number and percentage compared to the control), and the incorporation of radioactive sulphate (^35SO4; in coups per minutes, CPM).
As was already observed with the femoral head cartilage, the erythrocytes, erythrocyte lysate and haemoglobin also cause cellular destruction in this model. However, stress-induced HSPs prevent this cellular destruction and preserve the cells, as shown on FIG. 6 which counts the live cells (model: human chondrocytes under thermal stress (1 h at 43° C.) and treated with erythrocyte lysate (3×10^6); sem=standard error).

heme oxygenase-1 (HO-1) [2] = test: Western blot of HO-1 expression in mice macrophages; type: cell-based; details: 10^−5 M, analysed at 15, 30, 60 min (diacerein, FIG. 7b) or 0-120 min and 18 h (rhein, FIG. 7c)
Protocol: FIGS. 7b and 7c are also <<Western blots >> of cells (model: mice macrophages) cultivated with and without diacerein (FIG. 7b: columns “Dε” and “Cε” respectively) or rhein (FIG. 7c) at a concentration of 10^−5 M, and later analysed at 15, 30 and 60 minutes (FIG. 7b) and at 0, 15, 30, 60, 120 minutes as well as 18 hours (FIG. 7c). The identity of the protein of interest, HO-1, was confirmed as regards its molecular mass (first column on the left in the Figures).

heme oxygenase-1 (HO-1) [3] = test: Western blot of HO-1 expression in rat femoral head cartilage culture; type: cell-based; details: diacerein 10 μM and 100 μM, compared to control and reference solution, FIG. 7a
[4] = cited from earlier work
[5] = system: patients presenting with osteoarthritis; details: cited from earlier work; for antalgic and anti-inflammatory symptomatic activity: acute phase of osteoarthritis, Nguyen et al. 1994

## CC(=O)Oc1cccc2c1C(=O)c1c(OC(C)=O)cc(C(=O)O)cc1C2=O [diacerein]
[1]; 5, 15 and 50 mg/kg per oral route, daily, 2 weeks, p<0.01 vs control, FIG. 10
  tissular reaction (formation of the reactive granuloma): dose-dependent reduction
[1]; 5, 15 and 50 mg/kg per oral route, p<0.05 / p<0.01 vs control, FIG. 12 left
  integrity of the grafted tissue: content in collagen: preserves the integrity of the grafted tissue
[1]; 5, 15 and 50 mg/kg per oral route, p<0.05 / p<0.01 vs control, FIG. 12 right
  integrity of the grafted tissue: content in glycosamino-glycan (GAG): preserves the integrity of the grafted tissue
[1]; 5, 15 and 50 mg/kg per oral route, p<0.05 vs control, FIG. 11 left
  tissular reaction: number of inflammatory cells: reduced in a dose-dependent manner
[1]; 5, 15 and 50 mg/kg per oral route, p<0.05 vs control, FIG. 11 right
  tissular reaction: volume of the exudate: reduced in a dose-dependent manner
[1]
  integrity of the implanted/grafted tissue: preserve the integrity of the implanted tissue
  tissular reaction (granuloma, inflammatory cells, exudate) caused by the transplant of rat tissue to the mouse: reduce the tissular reaction
Human chondrocytes; FIG. 8
  cellular destruction caused by the erythrocyte lysate (live cells): prevents the cellular destruction
Heme oxygenase-1 (HO-1) [2]
  expression of HO-1: time-dependant increase
Heme oxygenase-1 (HO-1) [3]
  expression of HO-1: dose-dependent increase
[4]
  solubility in alcohols: very slightly soluble
  solubility in water: very slightly soluble
[5]
  antalgic and anti-inflammatory symptomatic activity: moderate
[5]; patients with osteoarthritis
  progression of osteoarthritis: slows down the progression of osteoarthritis
  safety of use: good safety of use

## O=C(O)c1cc(O)c2c(c1)C(=O)c1cccc(O)c1C2=O [rhein]
[1]
  integrity of the implanted/grafted tissue: preserve the integrity of the implanted tissue
  tissular reaction (granuloma, inflammatory cells, exudate) caused by the transplant of rat tissue to the mouse: reduce the tissular reaction
Human chondrocytes; FIG. 9
  apoptosis caused by the erythrocyte lysate: prevents the apoptosis
Heme oxygenase-1 (HO-1) [2]
  expression of HO-1: time-dependant increase
[4]
  solubility in alcohols: very slightly soluble
  solubility in water: very slightly soluble
[5]
  antalgic and anti-inflammatory symptomatic activity: moderate
